Source: PMC12957798, “Adaptation of plateau frog peptide: From antimicrobial to angiogenic and proliferative functions” (Journal of Advanced Research, 2025)

Experiments:
A. baumannil ATCC1968 = assay: Broth microdilution MIC, A. baumannii; format: cell-based, Acinetobacter baumannii; conditions: positive control, 37 °C, 24 h, OD600
Procedure: (§1) Disk diffusion and broth microdilution tests were selected as the standard method for screening the antimicrobial activity of SC17-2 [58]. The experiments were conducted utilising the disk diffusion test, whereby the following strains were examined: Acinetobacter baumannii (ATCC 19606), Candida auris (ATCC 10231), Pseudomonas aeruginosa (ATCC 27853) and Staphylococcus aureus (ATCC 6538). The concentration of bacterial suspension was then adjusted to 1 × 10^5 CFU/mL with saline, after which it was set aside. Separate plates containing bacterial agar were prepared: MH agar was utilised for the isolation of bacterial samples, while Sartorius agar was employed for the isolation of fungal samples. The suspensions containing the aforementioned microorganisms were then spread on the designated plates at a rate of 1:1000. A sterile filter paper was used to dispense 1 mL of SC17-2 (10 mg/mL), with equal amounts of PBS and Vancomycin/Colistin serving as controls. The plates were then subjected to the appropriate temperature (24 h at 37 °C) and subsequently observed under a camera to ascertain the results. […] At the conclusion of this period, the absorbance was measured using a Microplate Reader (Synergy H1, BioTek, USA) with a wavelength of 600 nm. […]

[1] = tested on: Escherichia coli ATCC2771; assay: Broth microdilution MIC, E. coli; format: cell-based; parameters: unit not given beside the values; conditions: positive control, 37 °C, 24 h, OD600
Procedure: as §1

S. aureus ATCC6538 = assay: Broth microdilution MIC, S. aureus; format: cell-based, Staphylococcus aureus; parameters: unit not given beside the values; conditions: positive control, 37 °C, 24 h, OD600
Procedure: as §1

TGF-β = assay: Western blot TGF-β in HaCaT; format: cell-based, Human; conditions: VEGF, n = 3
Procedure: (§2) HaCaT was inoculated in 12-well plates (2 × 10^5 cells/well) and cultured for 24 h. Afterwards, HaCaT cells were treated with equal amounts of VEGF, SC17-2, and PBS for 16 h. Cells were washed with PBS, after which the samples were collected and added to 1 mL of RIPA lysate containing protease inhibitors and phosphatase inhibitors and placed on ice for 30 min. Allowed to be after sufficient lysis, the supernatant was centrifuged and collected to determine the protein concentration using a nanodrop, followed by the addition of SDS sampling buffer and heating at 95 °C for 10 min. Samples were loaded and run on a gel block based on the determined sample concentration, and then electrotransferred onto a 0.45 μm PVDF membrane. […] After washing three times with TBST, proteins were visualised and scanned by enhanced chemiluminescence using the ChemiDoc XRS imaging system (Bio-Rad, Hercules, CA, USA).

BALB/c mice = assay: Mouse full-thickness skin wound healing; format: in vivo; conditions: day 13, VEGF 20 ng/mL, 20 μL daily on wound, relative to day 1, mean ± SEM, n = 7
Procedure: Mice were anaesthetised with sodium pentobarbital 2 % by intraperitoneal injection (0.1 mL/20 g mouse body weight), and after anaesthesia, hair was removed from the back using depilatory cream and power scissors, and circular full-thickness skin wounds of the same diameter were marked and created on the back of each mouse using circular stamps and red sealant. The mouse wounds were then covered and infiltrated daily with 20 μL of different concentrations of SC17-2 or 20 ng/mL VEGF, and an equal volume of saline was used in the control group. The mice were anaesthetised by isoflurane nebulisation (concentration 2 %) every two days and then placed under an optical camera to photograph the effect of the wound area.
Sodium pentobarbital (2 %) was utilised for the anaesthetisation of mice by intraperitoneal injection (0.1 mL/20 g of mouse body weight). Subsequent to the induction of anaesthesia, the dorsal hair was removed using depilatory creams and electric scissors. Thereafter, circular full skin wounds of the same diameter were marked and created on the back of each mouse using circular stamps and red stencils. Mouse wounds were then covered and infiltrated daily with 20 μL of different concentrations of SC17-2 or 20 ng/mL of VEGF, and an equal volume of saline was used in the control group. Mice were anaesthetised every two days using isoflurane nebulisation followed by anaesthesia (concentration 2 %), after which they were placed under an optical camera to photograph the effect of wound area. After 13 days of treatment, mice were anaesthetised using isoflurane nebulisation followed by injection of an overdose of sodium pentobarbital to euthanise the mice (200 mg/kg). The wounds and their surrounding tissues were then excised for histopathological evaluation (Masson and H&E staining) and analysed by Enface immunofluorescence staining.

p-ERK/ERK = assay: Western blot p-ERK/ERK in HaCaT; format: cell-based, Human; conditions: VEGF, n = 3
Procedure: as §2

(p-Smad2/3)/(Smad2/3) = assay: Western blot p-Smad2/3 / Smad2/3 in HaCaT; format: cell-based, Human; conditions: VEGF, n = 3
Procedure: as §2

CN[C@H](CC(C)C)C(=O)N[C@H]1C(=O)N[C@@H](CC(N)=O)C(=O)N[C@H]2C(=O)N[C@H]3C(=O)N[C@H](C(=O)N[C@H](C(=O)O)c4cc(O)cc(O)c4-c4cc3ccc4O)[C@H](O)c3ccc(c(Cl)c3)Oc3cc2cc(c3O[C@@H]2O[C@H](CO)[C@@H](O)[C@H](O)[C@H]2O[C@H]2C[C@](C)(N)[C@H](O)[C@H](C)O2)Oc2ccc(cc2Cl)[C@H]1O [Vancomycin]
MIC (A. baumannil ATCC1968): 0.78

Colistin
MIC [1]: 0.78
MIC (S. aureus ATCC6538): 0.78

VEGF
expression of TGF-β (TGF-β): significantly increase the expression of TGF-β
wound area (BALB/c mice): 7.04 ± 1.43%
ERK phosphorylation (p-ERK/ERK): significantly increased ERK phosphorylation
Smad2/3 phosphorylation ((p-Smad2/3)/(Smad2/3)): significantly increased Smad2/3 phosphorylation
